Values of other authors as cited in patent US11229596B2, “Preservative free pharmaceutical ophthalmic compositions” (PHARMATHEN S.A., priority 2016, dated 2022).
Structures can show the parent of a compound that is named as a salt. Where two headings read alike, the source gives them in different places.

Tests used:
[1] = tested on: intraocular pressure; conditions: in man

**Q.** What does the source list for CC(C)OC(=O)CCC/C=C\C[C@@H]1[C@@H](CC[C@@H](O)CCc2ccccc2)[C@H](O)C[C@@H]1O [Latanoprost]?
**A.** Duration of pressure reduction [1]: at least 24 hours; Start of reduction of the intraocular pressure after administration [1]: three to four; Time to maximum effect on intraocular pressure [1]: eight to twelve; Solubility (in acetonitrile): very soluble; Solubility (in ethanol): freely soluble; Solubility (in water): practically insoluble

**Q.** Which Solubility (in chloroform) does the source give for CC(C)(C)NC[C@H](O)COc1nsnc1N1CCOCC1 [Timolol maleate] here?
**A.** sparingly soluble

**Q.** And the Solubility (in cyclohexane)?
**A.** insoluble

**Q.** And the Solubility (in ethanol)?
**A.** soluble

**Q.** And the Solubility (in ether)?
**A.** insoluble

**Q.** What about the Solubility (in methanol) of the same compound?
**A.** soluble

**Q.** What about the Solubility (in propylene glycol) of the same compound?
**A.** sparingly soluble

**Q.** What about the Solubility (in water) of the same compound?
**A.** soluble
